Literature values as cited in US3972859A, “Novel decapeptide amide analogs of leuteinizing hormone-releasing hormone” (Takeda Chemical Industries, Ltd., priority 1974, dated 1976).

Test system: LH-RH activity
Conditions: relative to parent LH-RH; literature (Monahan et al 1973)

Substance: [D-Ala^6 ]LH-RH
- potency, % of the potency of the parent LH-RH: 350-450%
